Measured values: PMC7587356, “High-Throughput Screening for Inhibitors of the SARS-CoV-2 Protease Using a FRET-Biosensor” (Molecules, 2020)
Counter-ions that a name gives are not always drawn. Like-named read-outs stand apart in the source and are kept apart here.

Target: SARS-CoV-2 3CLpro (Severe acute respiratory syndrome coronavirus 2, UniProt P0DTD1)
Assay: biochemical
Assay type: biochemical
Parameters: Replicate_1 / Replicate_2 / mean / mean (LOPAC_screen_w_protease): unit not given here
Conditions: for inhibition at 5 µM: 4 h
[1] = sheet LOPAC_screen_w_protease, primary screen at 5 µM, mean of two replicates, read-out: mean (LOPAC screen with protease)
[2] = sheet LOPAC_screen_w_protease, primary screen at 5 µM, replicate 1, read-out: Replicate_1 (LOPAC screen with protease)
[3] = sheet LOPAC_screen_w_protease, primary screen at 5 µM, replicate 2, read-out: Replicate_2 (LOPAC screen with protease)
[4] = sheet LOPAC_screen_w_protease, LOPAC1280 primary screen with protease, 5 µM compound, mean of the two replicates, read-out: mean
[5] = sheet LOPAC_screen_w_protease, LOPAC1280 primary screen with protease, 5 µM compound, replicate 1, read-out: Replicate_1
[6] = sheet LOPAC_screen_w_protease, LOPAC1280 primary screen with protease, 5 µM compound, replicate 2, read-out: Replicate_2
[7] = sheet LOPAC_screen_w_protease, primary screen of LOPAC1280 at 5 µM with protease, mean of the two replicates, read-out: mean
[8] = sheet LOPAC_screen_w_protease, primary screen of LOPAC1280 at 5 µM with protease, replicate 1, read-out: Replicate_1
[9] = sheet LOPAC_screen_w_protease, primary screen of LOPAC1280 at 5 µM with protease, replicate 2, read-out: Replicate_2
[10] = sheet LOPAC_screen_w_protease, primary screen with protease, compound at 5 µM, mean of two replicates
[11] = sheet LOPAC_screen_w_protease, primary screen with protease, compound at 5 µM, replicate 1
[12] = sheet LOPAC_screen_w_protease, primary screen with protease, compound at 5 µM, replicate 2
[13] = LOPAC1280 primary screen with protease, 5 µM compound, mean of the two replicates
[14] = LOPAC1280 primary screen with protease, 5 µM compound, replicate 1
[15] = sheet LOPAC_screen_w_protease, LOPAC1280 primary screen with protease, 5 µM compound, mean of the two replicates
[16] = sheet LOPAC_screen_w_protease, LOPAC1280 primary screen with protease, 5 µM compound, replicate 1
[17] = sheet LOPAC_screen_w_protease, LOPAC1280 primary screen with protease, 5 µM compound, replicate 2

## O=C(Nc1ccc([N+](=O)[O-])cc1Cl)c1cc(Cl)ccc1O [Niclosamide]
read-out: Replicate_1
  inhibition at 5 µM: 5.53%
read-out: Replicate_2
  inhibition at 5 µM: 4%
read-out: mean
  inhibition at 5 µM: 4.76%

## COC(=O)C1=C(C)NC(C)=C(C(=O)OC)C1c1ccccc1[N+](=O)[O-] [Nifedipine]
[1]
  inhibition at 5 µM: 14.6%
[2]
  inhibition at 5 µM: 13.8%
[3]
  inhibition at 5 µM: 15.5%

## O=C(O)c1cccnc1Nc1cccc(C(F)(F)F)c1 [Niflumic acid]
[4]
  inhibition at 5 µM: 4.95%
[5]
  inhibition at 5 µM: 4.76%
[6]
  inhibition at 5 µM: 5.13%

## CC1(C)NC(=O)N(c2ccc([N+](=O)[O-])c(C(F)(F)F)c2)C1=O [Nilutamide]
Sheet LOPAC_screen_w_protease, LOPAC1280 primary screen at 5 µM, with protease, mean of the two replicates, read-out: mean
  inhibition at 5 µM: 0.761%
Sheet LOPAC_screen_w_protease, LOPAC1280 primary screen at 5 µM, with protease, replicate 1, read-out: Replicate_1
  inhibition at 5 µM: 2.22%
Sheet LOPAC_screen_w_protease, LOPAC1280 primary screen at 5 µM, with protease, replicate 2, read-out: Replicate_2
  inhibition at 5 µM: -0.697%

## CS(=O)(=O)Nc1ccc([N+](=O)[O-])cc1Oc1ccccc1 [Nimesulide]
read-out: Replicate_1
  inhibition at 5 µM: 4.73%
read-out: Replicate_2
  inhibition at 5 µM: 4.45%
read-out: mean
  inhibition at 5 µM: 4.59%

## COCCOC(=O)C1=C(C)NC(C)=C(C(=O)OC(C)C)C1c1cccc([N+](=O)[O-])c1 (centres unmarked) [Nimodipine]
[4]
  inhibition at 5 µM: 4.81%
[5]
  inhibition at 5 µM: 3.58%
[6]
  inhibition at 5 µM: 6.04%

## Cc1ncc(CNC(=O)N(CCCl)N=O)c(N)n1 [Nimustine hydrochloride]
[7]
  inhibition at 5 µM: 3.43%
[8]
  inhibition at 5 µM: 3.89%
[9]
  inhibition at 5 µM: 2.97%

## CNCCC(Oc1ccccc1OC)c1ccccc1 (centres unmarked) [Nisoxetine hydrochloride]
[4]
  inhibition at 5 µM: 4.4%
[5]
  inhibition at 5 µM: 3.53%
[6]
  inhibition at 5 µM: 5.27%

## CCOC(=O)C1=C(C)NC(C)=C(C(=O)OC)C1c1cccc([N+](=O)[O-])c1 (centres unmarked) [Nitrendipine]
[4]
  inhibition at 5 µM: 4.54%
[5]
  inhibition at 5 µM: 3.89%
[6]
  inhibition at 5 µM: 5.19%

## COC(=O)Nc1nc2ccc(C(=O)c3cccs3)cc2[nH]1 [Nocodazole]
[4]
  inhibition at 5 µM: 4.68%
[5]
  inhibition at 5 µM: 2.87%
[6]
  inhibition at 5 µM: 6.49%

## O=C1OC(=O)[C@H]2[C@@H]1[C@@H]1CC[C@H]2O1 [Norcantharidin]
[10]
  mean: 2.796
[11]
  Replicate_1: 1.684
[12]
  Replicate_2: 3.909

## CNCCC=C1c2ccccc2CCc2ccccc21 [Nortriptyline hydrochloride]
read-out: Replicate_1
  inhibition at 5 µM: 2.88%
read-out: Replicate_2
  inhibition at 5 µM: 1.57%
read-out: mean
  inhibition at 5 µM: 2.22%

## COc1ccc2c(c1OC)C(=O)O[C@@H]2[C@H]1c2c(cc3c(c2OC)OCO3)CCN1C.Cl [Noscapine hydrchloride]
[13]
  mean (LOPAC_screen_w_protease): 1.752
[14]
  Replicate_1 (LOPAC_screen_w_protease): 0.9869

## CC(CCc1ccccc1)NC(C)C(O)c1ccc(O)cc1 (centres unmarked) [Nylidrin hydrochloride]
[7]
  inhibition at 5 µM: 3.76%
[8]
  inhibition at 5 µM: 4.88%
[9]
  inhibition at 5 µM: 2.65%

## Nc1nc(OCc2ccccc2)c2nc[nH]c2n1 [O6-benzylguanine]
LOPAC1280 primary screen with protease, 5 µM compound, replicate 1, read-out: Replicate_1 (LOPAC_screen_w_protease)
  inhibition at 5 µM: 0.721%
LOPAC1280 primary screen with protease, 5 µM compound, replicate 2, read-out: Replicate_2 (LOPAC_screen_w_protease)
  inhibition at 5 µM: 2.08%
LOPAC1280 primary screen with protease, 5 µM compound, mean of two replicates
  mean (LOPAC_screen_w_protease): 1.401

## COc1ccc2[nH]cc(CCN)c2c1.Cl [O-Methylserotonin hydrochloride]
[13]
  mean (LOPAC_screen_w_protease): 2.11
[14]
  Replicate_1 (LOPAC_screen_w_protease): 3.3171
LOPAC1280 primary screen with protease, 5 µM compound, replicate 2
  Replicate_2 (LOPAC_screen_w_protease): 0.9034

## N[C@@H](COP(=O)(O)O)C(=O)O [O-Phospho-L-serine]
[15]
  mean: 5.279
[16]
  Replicate_1: 3.193
[17]
  Replicate_2: 7.365

## O=c1onc2cnc3ccccc3n12 [ODQ]
[10]
  mean: 2.809
[11]
  Replicate_1: 2.693
[12]
  Replicate_2: 2.926

## CC1OC(C[N+](C)(C)C)CS1.[I-] (centres unmarked) [OXA-22 iodide]
[15]
  mean: 6.327
[16]
  Replicate_1: 7.065
[17]
  Replicate_2: 5.588

## CC1COc2c(N3CCN(C)CC3)c(F)cc3c(=O)c(C(=O)O)cn1c23 (centres unmarked) [Ofloxacin]
[4]
  inhibition at 5 µM: 6.37%
[5]
  inhibition at 5 µM: 5.61%
[6]
  inhibition at 5 µM: 7.14%

## Cn1cnc2c(NCc3ccccc3)nc(NCCO)nc21 [Olomoucine]
[4]
  inhibition at 5 µM: 4.92%
[5]
  inhibition at 5 µM: 3.02%
[6]
  inhibition at 5 µM: 6.83%

## C[C@@H]1O[C@@H](O[C@H]2C[C@@H](O)[C@]3(CO)[C@H]4[C@H](O)C[C@]5(C)[C@@H](C6=CC(=O)OC6)CC[C@]5(O)[C@@H]4CC[C@]3(O)C2)[C@H](O)[C@H](O)[C@H]1O [Ouabain]
read-out: Replicate_1
  inhibition at 5 µM: 3.98%
read-out: Replicate_2
  inhibition at 5 µM: 1.68%
read-out: mean
  inhibition at 5 µM: 2.83%

## O=C(O)CCc1nc(-c2ccccc2)c(-c2ccccc2)o1 [Oxaprozin]
read-out: Replicate_1
  inhibition at 5 µM: 3.59%
read-out: Replicate_2
  inhibition at 5 µM: 3.25%
read-out: mean
  inhibition at 5 µM: 3.42%

## O=c1[nH]c2ccccc2n1CCCN1CCN(C(c2ccccc2)c2ccccc2)CC1 [Oxatomide]
[4]
  inhibition at 5 µM: 5.24%
[5]
  inhibition at 5 µM: 4.62%
[6]
  inhibition at 5 µM: 5.86%

## NC(=O)CN1CC(O)CC1=O (centres unmarked) [Oxiracetam]
[7]
  inhibition at 5 µM: 3.68%
[8]
  inhibition at 5 µM: 3.64%
[9]
  inhibition at 5 µM: 3.71%

## CCn1cc(C(=O)O)c(=O)c2cc3c(cc21)OCO3 [Oxolinic acid]
[7]
  inhibition at 5 µM: 3.24%
[8]
  inhibition at 5 µM: 3.47%
[9]
  inhibition at 5 µM: 3%

## C[N+](C)(C)CC#CCN1CCCC1=O [Oxotremorine methiodide]
[1]
  inhibition at 5 µM: 7.27%
[2]
  inhibition at 5 µM: 7.16%
[3]
  inhibition at 5 µM: 7.38%

## O=C(O)/C=C/C(=O)O.O=C(O)/C=C/C(=O)O.O=C(O)/C=C/C(=O)O.O=C1CCCN1CC#CCN1CCCC1.O=C1CCCN1CC#CCN1CCCC1 [Oxotremorine sesquifumarate salt]
[15]
  mean: 4.476
[16]
  Replicate_1: 3.394
[17]
  Replicate_2: 5.5586

## CCN(CC)CC#CCOC(=O)C(O)(c1ccccc1)C1CCCCC1 (centres unmarked) [Oxybutynin Chloride]
[4]
  inhibition at 5 µM: 4.78%
[5]
  inhibition at 5 µM: 4.91%
[6]
  inhibition at 5 µM: 4.65%

## Cc1cc(C(C)(C)C)c(O)c(C)c1CC1=NCCN1 [Oxymetazoline hydrochloride]
[4]
  inhibition at 5 µM: 5.36%
[5]
  inhibition at 5 µM: 4.63%
[6]
  inhibition at 5 µM: 6.09%

## Nc1ccc(CCN2CCN(c3cccc(C(F)(F)F)c3)CC2)cc1 [PAPP]
Sheet LOPAC_screen_w_protease, LOPAC1280 primary screen at 5 µM, with protease, mean of two replicates
  mean: -1.528
Sheet LOPAC_screen_w_protease, LOPAC1280 primary screen at 5 µM, with protease, replicate 1
  Replicate_1: -1.095
Sheet LOPAC_screen_w_protease, LOPAC1280 primary screen at 5 µM, with protease, replicate 2
  Replicate_2: -1.96

## COc1cccc(-c2cc(=O)c3ccccc3o2)c1N [PD 98,059]
  Replicate_1: 3.541
  Replicate_2: 1.402
  mean: 2.471

## Cc1cccc(C(=O)NCN2CCN(c3ccccc3C#N)CC2)c1.O=C(O)/C=C\C(=O)O [PD 168,077 maleate]
Sheet LOPAC_screen_w_protease, LOPAC1280 at 5 µM, mean of two replicates
  mean: 1.169
Sheet LOPAC_screen_w_protease, LOPAC1280 at 5 µM, replicate 1
  Replicate_1: 0.792
Sheet LOPAC_screen_w_protease, LOPAC1280 at 5 µM, replicate 2
  Replicate_2: 1.545

## CCC(C)N(C)C(=O)c1cc2ccccc2c(-c2ccccc2Cl)n1 (centres unmarked) [PK 11195]
Sheet LOPAC_screen_w_protease, primary screen with protease, compound at 5 µM, mean of two replicates, read-out: mean
  inhibition at 5 µM: 3.14%
Sheet LOPAC_screen_w_protease, primary screen with protease, compound at 5 µM, replicate 1, read-out: Replicate_1
  inhibition at 5 µM: 1.87%
Sheet LOPAC_screen_w_protease, primary screen with protease, compound at 5 µM, replicate 2, read-out: Replicate_2
  inhibition at 5 µM: 4.41%

## Cc1nc(N=Nc2ccc(S(=O)(=O)O)cc2S(=O)(=O)O)c(COP(=O)(O)O)c(C=O)c1O [PPADS]
Sheet LOPAC_screen_w_protease, primary screen with protease, 5 µM, mean of two replicates
  mean: 0.05886
Sheet LOPAC_screen_w_protease, primary screen with protease, 5 µM, replicate 1
  Replicate_1: -0.6012
Sheet LOPAC_screen_w_protease, primary screen with protease, 5 µM, replicate 2
  Replicate_2: 0.7189

## Cc1nc(N=Nc2cc(S(=O)(=O)[O-])c3cc([N+](=O)[O-])cc(S(=O)(=O)[O-])c3c2)c(COP(=O)([O-])[O-])c(C=O)c1O.[Na+].[Na+].[Na+].[Na+] [PPNDS tetrasodium]
[15]
  mean: 5.708
[16]
  Replicate_1: 4.956
[17]
  Replicate_2: 6.46

## O=C(OCCN1CCOCC1)C1(c2ccccc2)CCCCC1 [PRE-084]
Sheet LOPAC_screen_w_protease, primary screen of LOPAC1280 at 5 µM with protease, mean of the two replicates
  mean: 3.777
Sheet LOPAC_screen_w_protease, primary screen of LOPAC1280 at 5 µM with protease, replicate 1
  Replicate_1: 2.6752
Sheet LOPAC_screen_w_protease, primary screen of LOPAC1280 at 5 µM with protease, replicate 2
  Replicate_2: 4.879
